According to PubChem BioAssay (NCI):
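Grown in 96-well plates, cells were treated for 48 hours with each compound at five concentrations. Insufficient inhibition: endpoint recorded as highest concentration tested. TGI is the concentration that stops growth completely.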

How the values were obtained:
Experiment in all cases: NCI-60 cell line screen, 48 h
[1] = tested on: HT29 colon
[2] = tested on: BT-549 breast
[3] = tested on: KM12 colon
[4] = tested on: MDA-MB-435
[5] = tested on: RPMI-8226 leukemia
[6] = tested on: SK-MEL-2 melanoma
[7] = tested on: NCI-H226 lung
[8] = tested on: UO-31 renal
[9] = tested on: SN12C renal
[10] = tested on: TK-10 renal
[11] = tested on: NCI-H522 lung
[12] = tested on: OVCAR-3 ovarian
[13] = tested on: M14 melanoma
[14] = tested on: K-562 leukemia
[15] = tested on: UACC-257 melanoma
[16] = tested on: U251 CNS
[17] = tested on: RXF 393 renal
[18] = tested on: SK-MEL-28 melanoma
[19] = tested on: OVCAR-4 ovarian
[20] = tested on: SW-620 colon
[21] = tested on: HCT-15 colon
[22] = tested on: MDA-N
[23] = tested on: SK-MEL-5 melanoma
[24] = tested on: SNB-19 CNS
[25] = tested on: HCC-2998 colon
[26] = tested on: OVCAR-5 ovarian
[27] = tested on: A549 NSCLC
[28] = tested on: SR leukemia
[29] = tested on: SNB-75 CNS
[30] = tested on: DU-145 prostate
[31] = tested on: MDA-MB-231 breast
[32] = tested on: MOLT-4 leukemia
[33] = tested on: MALME-3M melanoma
[34] = tested on: 786-0 renal
[35] = tested on: HL-60(TB) leukemia
[36] = tested on: NCI-H460 lung
[37] = tested on: CCRF-CEM leukemia
[38] = tested on: IGROV1 ovarian
[39] = tested on: HOP-92 NSCLC
[40] = tested on: HS 578T breast
[41] = tested on: MCF7 breast
[42] = tested on: COLO 205 colon
[43] = tested on: UACC-62 melanoma
[44] = tested on: SF-295 CNS
[45] = tested on: NCI-H23 lung
[46] = tested on: T-47D breast
[47] = tested on: SF-268 CNS
[48] = tested on: LOX IMVI melanoma
[49] = tested on: ACHN renal
[50] = tested on: OVCAR-8 ovarian
[51] = tested on: HCT-116 colon
[52] = tested on: CAKI-1 renal
[53] = tested on: HOP-62 NSCLC
[54] = tested on: NCI/ADR-RES ovarian
[55] = tested on: PC-3 prostate
[56] = tested on: A498 renal
[57] = tested on: SF-539 CNS
[58] = tested on: EKVX NSCLC
[59] = tested on: SK-OV-3 ovarian

Which results are given for CCOC(=O)c1c(NCc2ccccc2)n(-c2ccccc2)c(=S)n(-c2ccccc2)c1=O?
TGI [1]: > 100 µM; TGI [2]: > 100 µM; TGI [3]: > 100 µM; TGI [4]: > 100 µM; TGI [5]: > 100 µM; TGI [6]: > 100 µM; TGI [7]: > 100 µM; TGI [8]: > 100 µM; TGI [9]: > 100 µM; TGI [10]: > 100 µM; TGI [11]: > 100 µM; TGI [12]: > 100 µM; TGI [13]: > 100 µM; TGI [14]: > 100 µM; TGI [15]: > 100 µM; TGI [16]: > 100 µM; TGI [17]: > 100 µM; TGI [18]: > 100 µM; TGI [19]: > 100 µM; TGI [20]: > 100 µM; TGI [21]: > 100 µM; TGI [22]: > 100 µM; TGI [23]: > 100 µM; TGI [24]: > 100 µM; TGI [25]: > 100 µM; TGI [26]: > 100 µM; TGI [27]: > 100 µM; TGI [28]: > 100 µM; TGI [29]: > 100 µM; TGI [30]: > 100 µM; TGI [31]: > 100 µM; TGI [32]: > 100 µM; TGI [33]: > 100 µM; TGI [34]: > 100 µM; TGI [35]: > 100 µM; TGI [36]: > 100 µM; TGI [37]: > 100 µM; TGI [38]: > 100 µM; TGI [39]: > 100 µM; TGI [40]: 94.4 µM; TGI [41]: > 100 µM; TGI [42]: > 100 µM; TGI [43]: > 100 µM; TGI [44]: > 100 µM; TGI [45]: > 100 µM; TGI [46]: > 100 µM; TGI [47]: > 100 µM; TGI [48]: > 100 µM; TGI [49]: > 100 µM; TGI [50]: > 100 µM

Which results are given for CC[C@H]1C=CCC[C@@]2(C[C@@H]3CC[C@@H]4[C@H](C(=O)OCCCCCCCCCCCCCCCC(=O)N(CCCN)CCCCN)[C@]5(CCC[C@@H](C)O5)NC(=[N+]34)N2)O1?
TGI [1]: 1.32 µM; TGI [51]: 1.41 µM; TGI [3]: 1.2 µM; TGI [52]: 1.59 µM; TGI [8]: 0.334 µM; TGI [13]: 0.0187 µM; TGI [16]: 1.54 µM; TGI [53]: 0.106 µM; TGI [21]: 1.4 µM; TGI [22]: 1.83 µM; TGI [24]: 1.99 µM; TGI [54]: 2.7 µM; TGI [55]: 1.46 µM; TGI [27]: 1.42 µM; TGI [33]: 0.119 µM; TGI [38]: 2.28 µM; TGI [39]: 0.197 µM; TGI [45]: 1.07 µM

What does the source list for Cc1nn(C)c2nc3ccc(Cl)cc3c(-c3ccccc3)c12?
TGI [1]: > 100 µM; TGI [2]: > 100 µM; TGI [56]: > 100 µM; TGI [51]: > 100 µM; TGI [3]: > 100 µM; TGI [52]: > 100 µM; TGI [4]: > 100 µM; TGI [5]: > 100 µM; TGI [6]: > 100 µM; TGI [57]: > 100 µM; TGI [58]: > 100 µM; TGI [7]: > 100 µM; TGI [8]: > 100 µM; TGI [59]: > 100 µM; TGI [9]: > 100 µM; TGI [11]: > 100 µM; TGI [12]: > 100 µM; TGI [13]: > 100 µM; TGI [14]: > 100 µM; TGI [15]: > 100 µM; TGI [16]: > 100 µM; TGI [17]: > 100 µM; TGI [18]: > 100 µM; TGI [53]: > 100 µM; TGI [19]: > 100 µM; TGI [20]: > 100 µM; TGI [21]: > 100 µM; TGI [22]: > 100 µM; TGI [24]: > 100 µM; TGI [54]: > 100 µM; TGI [25]: > 100 µM; TGI [26]: > 100 µM; TGI [55]: > 100 µM; TGI [27]: > 100 µM; TGI [28]: > 100 µM; TGI [29]: > 100 µM; TGI [30]: > 100 µM; TGI [31]: > 100 µM; TGI [32]: > 100 µM; TGI [33]: > 100 µM; TGI [34]: > 100 µM; TGI [35]: > 100 µM; TGI [36]: > 100 µM; TGI [37]: > 100 µM; TGI [39]: > 100 µM; TGI [41]: > 100 µM; TGI [42]: > 100 µM; TGI [43]: > 100 µM; TGI [44]: > 100 µM; TGI [45]: > 100 µM; TGI [46]: > 100 µM; TGI [47]: > 100 µM; TGI [49]: > 100 µM; TGI [50]: > 100 µM

With O/N=C1\CCc2nonc2\C1=N/Nc1ccccc1 as the molecule, how does the TGI [1] read?
The TGI was over 100 µM.

What about the TGI [51] of the same molecule?
The TGI was over 100 µM.

And the TGI [3]?
The TGI was over 100 µM.

What about the TGI [52] of the same molecule?
The TGI was over 100 µM.

What about the TGI [4] of the same molecule?
The TGI was over 100 µM.

What about the TGI [5] of the same molecule?
The TGI was over 100 µM.

What about the TGI [6] of the same molecule?
The TGI was over 100 µM.

What about the TGI [57] of the same molecule?
Its TGI is over 100 µM.

And the TGI [58]?
Its TGI is over 100 µM.

What about the TGI [7] of the same molecule?
The TGI was over 100 µM.

And the TGI [8]?
The TGI was over 100 µM.

What about the TGI [59] of the same molecule?
The TGI was over 100 µM.

What about the TGI [9] of the same molecule?
Its TGI is over 100 µM.

What about the TGI [10] of the same molecule?
The TGI was over 100 µM.

And the TGI [12]?
Its TGI is over 100 µM.

What about the TGI [13] of the same molecule?
Its TGI is over 100 µM.

And the TGI [14]?
Its TGI is over 100 µM.

And the TGI [15]?
Its TGI is over 100 µM.

And the TGI [16]?
Its TGI is over 100 µM.

And the TGI [17]?
Its TGI is over 100 µM.

And the TGI [18]?
The TGI was over 100 µM.

What about the TGI [53] of the same molecule?
The TGI was over 100 µM.

What about the TGI [19] of the same molecule?
The TGI was over 100 µM.

And the TGI [20]?
Its TGI is over 100 µM.

What about the TGI [21] of the same molecule?
The TGI was over 100 µM.

And the TGI [22]?
Its TGI is over 100 µM.

And the TGI [23]?
Its TGI is over 100 µM.

What about the TGI [24] of the same molecule?
Its TGI is over 100 µM.

And the TGI [54]?
Its TGI is over 100 µM.

What about the TGI [25] of the same molecule?
Its TGI is over 100 µM.

What about the TGI [26] of the same molecule?
The TGI was over 100 µM.

And the TGI [55]?
Its TGI is over 100 µM.

What about the TGI [27] of the same molecule?
The TGI was over 100 µM.

What about the TGI [28] of the same molecule?
Its TGI is over 100 µM.

What about the TGI [29] of the same molecule?
The TGI was over 100 µM.

And the TGI [30]?
Its TGI is over 100 µM.

What about the TGI [31] of the same molecule?
Its TGI is over 100 µM.

And the TGI [32]?
Its TGI is over 100 µM.

And the TGI [33]?
Its TGI is over 100 µM.

What about the TGI [34] of the same molecule?
The TGI was over 100 µM.

What about the TGI [35] of the same molecule?
Its TGI is over 100 µM.

And the TGI [36]?
Its TGI is over 100 µM.

And the TGI [37]?
Its TGI is over 100 µM.

And the TGI [38]?
Its TGI is over 100 µM.

And the TGI [39]?
The TGI was over 100 µM.

And the TGI [40]?
Its TGI is over 100 µM.

And the TGI [42]?
Its TGI is over 100 µM.

And the TGI [43]?
Its TGI is over 100 µM.

And the TGI [44]?
Its TGI is over 100 µM.

What about the TGI [45] of the same molecule?
Its TGI is over 100 µM.

What about the TGI [46] of the same molecule?
Its TGI is over 100 µM.

And the TGI [47]?
Its TGI is over 100 µM.

What about the TGI [48] of the same molecule?
Its TGI is over 100 µM.

And the TGI [49]?
The TGI was over 100 µM.

And the TGI [50]?
Its TGI is over 100 µM.
